Biological target: T1, human GPBAR1 receptor (Homo sapiens, UniProt Q8TDU6)
T1 construct: expressed in transfected cells
T1 sequence (Q8TDU6 1-330): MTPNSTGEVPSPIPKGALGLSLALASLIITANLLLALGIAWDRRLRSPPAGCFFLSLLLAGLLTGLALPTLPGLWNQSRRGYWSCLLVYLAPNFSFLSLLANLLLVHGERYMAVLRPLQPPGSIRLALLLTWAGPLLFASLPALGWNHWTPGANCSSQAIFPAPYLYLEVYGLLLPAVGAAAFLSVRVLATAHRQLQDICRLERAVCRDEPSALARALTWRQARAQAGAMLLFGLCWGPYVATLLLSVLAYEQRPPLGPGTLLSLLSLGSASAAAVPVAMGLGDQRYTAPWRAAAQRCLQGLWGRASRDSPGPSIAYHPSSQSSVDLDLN
Experiment: functional cAMP assay in CHO-dhfr(minus) cells expressing human GPBAR1 receptors
Assay type: cell-based
Conditions: TR-FRET, 30 min at 30° C.
Description: The cDNA of the human GPBAR1 receptor (Genbank: NM_170699 with the exception of a silent C:G mutation at position 339 from the start codon) was amplified by polymerase chain reaction (PCR) from human cDNA and inserted into pCineo (Promega) by standard methods (Current Protocols in Molecular Biology, Wiley Press, ed. Ausubel et al.). The final clone was verified by DNA sequence analysis. The plasmid was transfected into CHO cells deficient in dihydrofolate reductase activity (CHO-dhfr-) using Lipofectamine plus (Invitrogen). Clones were isolated in limited dilution conditions and identified by activities in the cAMP assay using lithocholic acid as agonist. A clonal cell line displaying the greatest activity in cAMP increases was selected and identified as giving consistently good responses for up to at least 20 passages.
CHO-dhfr(minus) cells expressing human GPBAR1 receptors are seeded 17-24 hours prior to the experiment 50,000 cells per well in a black 96 well plate with flat clear bottom (Corning Costar #3904) in DMEM (Invitrogen No. 31331), 1×HT supplement, with 10% fetal calf serum and incubated at 5% CO2 and 37° C. in a humidified incubator. The growth medium was exchanged with Krebs Ringer Bicarbonate buffer with 1 mM IBMX and incubated at 30° C. for 30 min. Compounds were added to a final assay volume of 100 μl and incubated for 30 min at 30° C. The assay was stopped by the addition of 50 μl lysis reagent (Tris, NaCl, 1.5% Triton X100, 2.5% NP40, 10% NaN3) and 50 μl detection solutions (20 μM mAb Alexa700-cAMP 1:1, and 48 μM Ruthenium-2-AHA-cAMP) and shaked for 2 h at room temperature. The time-resolved energy transfer is measured by a TRF reader (Evotec Technologies GrmbH, Hamburg Germany), equipped with a ND:YAG laser as excitation source. The plate is measured twice with the excitation at 355 nm and at the emission with a delay of 100 ns and a gate of 100 ns, total exposure time 10 s at 730 (bandwidth 30 nm) or 645 nm (bandwidth 75 nm), respectively. The measured signal at 730 nm has to be corrected for the ruthenium background, the direct excitation of Alexa and the buffer control. The FRET signal is calculated as follows: FRET=T730−Alexa730-P(T645−B645) with P=Ru730−B730/Ru645−B645, where T730 is the test well measured at […], T645 is the test well measured at 645 nm, B730 and B645 are the buffer controls at 730 nm and 645 nm, respectively, cAMP content is determined from the function of a standard curve spanning from 10 μM to 0.13 nM cAMP.
EC50 values were determined using Activity Base analysis (ID Business Solution, Limited). The EC50 values for a wide range of bile acids generated from this assay were in agreement with the values published in the scientific literature. Specificity for GPBAR1 was tested in non-transfected CHO cells in the same assay as above.

Row | SMILES | EC50 [nM]
1 | Cc1ccccc1[C@@H](C/C(=N\O)c1ccn[nH]c1=O)c1ccc(Br)cc1 [Example 5, (S,E)-4-(3-(4-Bromophenyl)-1-(hydroxyimino)-3-o-tolylpropyl)pyridazin-3(2H)-one] | 148
2 | Cc1ccccc1C(C/C(=N\O)c1ccnnc1)c1ccc(C2CCN(S(C)(=O)=O)CC2)cc1 (centres unmarked) [Example 3, (E)-3-(4-(1-(methylsulfonyl)piperidin-4-yl)phenyl)-1-(pyridazin-4-yl)-3-o-tolylpropan-1-one oxime] | 956
3 | Cc1ccccc1[C@H](C/C(=N\O)c1ccnn(C)c1=O)c1ccc(C2CCN(S(C)(=O)=O)CC2)cc1 [Example 13, (R,E)-4-(1-(Hydroxyimino)-3-(4-(1-(methylsulfonyl)piperidin-4-yl)phenyl)-3-o-tolylpropyl)-2-methylpyridazin-3(2H)-one] | 179
4 | Cc1ccccc1[C@@H](C/C(=N\O)c1ccc(=O)[nH]n1)c1ccc(Br)cc1 [Example 14, (S,E)-6-(3-(4-Bromophenyl)-1-(hydroxyimino)-3-o-tolylpropyl)pyridazin-3(2H)-one] | 648
5 | COc1nnccc1/C(C[C@H](c1ccc(C2CCN(S(C)(=O)=O)CC2)cc1)c1ccccc1C)=N/O [Example 11, (R,E)-1-(3-Methoxypyridazin-4-yl)-3-(4-(1-(methylsulfonyl)piperidin-4-yl)phenyl)-3-o-tolylpropan-1-one oxime] | 52
6 | Cc1ccccc1C(C/C(=N\O)c1ccnnc1)c1ccc(-c2ccc(C(=O)O)cc2)cc1 (centres unmarked) [Example 2, (E)-4′-(3-(hydroxyimino)-3-(pyridazin-4-yl)-1-o-tolylpropyl)biphenyl-4-carboxylic acid] | 1560
7 | Cc1ccccc1[C@H](C/C(=N\O)c1ccc(=O)n(C)n1)c1ccc(C2CCN(S(C)(=O)=O)CC2)cc1 [Example 8, (R,E)-6-(1-(Hydroxyimino)-3-(4-(1-(methylsulfonyl)piperidin-4-yl)phenyl)-3-o-tolylpropyl)-2-methylpyridazin-3(2H)-one] | 33
8 | Cc1ccccc1[C@H](C/C(=N\O)c1ccnnc1)c1ccc(Br)cc1 [Example 1, (R,E)-3-(4-Bromophenyl)-1-(pyridazin-4-yl)-3-o-tolylpropan-1-one oxime] | 80

Next, values leading:

Row | EC50 [nM] | SMILES
9 | 90 | Cc1ccccc1[C@@H](C/C(=N\O)c1ccnn(C)c1=O)c1ccc(Br)cc1 [Example 6, (S,E)-4-(3-(4-Bromophenyl)-1-(hydroxyimino)-3-o-tolylpropyl)-2-methylpyridazin-3(2H)-one]
10 | 31 | COc1nnccc1/C(C[C@@H](c1ccc(Br)cc1)c1ccccc1C)=N/O [Example 4, (S,E)-3-(4-bromophenyl)-1-(3-methoxypyridazin-4-yl)-3-o-tolylpropan-1-one oxime]
11 | 61 | Cc1ccccc1[C@H](C/C(=N\O)c1ccc(=O)n(C)n1)c1ccc(-c2ccc(C(=O)O)cc2)cc1 [Example 9, (R,E)-4′-(3-(Hydroxyimino)-3-(1-methyl-6-oxo-1,6-dihydropyridazin-3-yl)-1-o-tolylpropyl)biphenyl-4-carboxylic acid]
12 | 6 | Cc1ccccc1[C@H](C/C(=N\O)c1ccc(=O)n(C)n1)c1ccc(Br)cc1 [Example 7, (R,E)-6-(3-(4-Bromophenyl)-1-(hydroxyimino)-3-o-tolylpropyl)-2-methylpyridazin-3(2H)-one]
13 | 527 | Cc1ccccc1[C@H](C/C(=N\O)c1ccn[nH]c1=O)c1ccc(C2CCN(S(C)(=O)=O)CC2)cc1 [Example 12, (R,E)-4-(1-(Hydroxyimino)-3-(4-(1-(methylsulfonyl)piperidin-4-yl)phenyl)-3-o-tolylpropyl)pyridazin-3(2H)-one]
14 | 60 | Cc1ccccc1[C@H](C/C(=N\O)c1ccc(=O)n(C)n1)c1ccc(S(C)(=O)=O)cc1 [Example 10, (R,E)-6-(1-(Hydroxyimino)-3-(4-(methylsulfonyl)phenyl)-3-o-tolylpropyl)-2-methylpyridazin-3(2H)-one]
